The compounds below were run against T1, hMAGL (Homo sapiens, UniProt Q99685) (assay: 2-AG assay: MAGL inhibition, hydrolysis of 2-arachidonoylglycerol to arachidonic acid followed by mass spectrometry).
T1 sequence (Q99685 1-303): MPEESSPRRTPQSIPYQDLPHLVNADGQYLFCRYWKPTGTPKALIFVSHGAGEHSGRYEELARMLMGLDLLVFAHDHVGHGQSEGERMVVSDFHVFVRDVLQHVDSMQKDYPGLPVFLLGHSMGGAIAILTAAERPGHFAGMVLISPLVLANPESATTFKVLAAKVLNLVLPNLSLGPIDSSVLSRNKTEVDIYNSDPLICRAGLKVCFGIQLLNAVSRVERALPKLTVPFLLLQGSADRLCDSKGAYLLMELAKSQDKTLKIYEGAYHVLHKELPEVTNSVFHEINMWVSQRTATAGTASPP
Assay type: biochemical
How it was run: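 MAGL preincubated with compound 15 min at RT in 50 mM Tris, 1 mM EDTA, 0.01% Tween-20, 2.5% DMSO; reaction started with 8 μM 2-AG (final), […], 30 min at RT. Quenched with acetonitrile containing d8-arachidonic acid; arachidonic acid quantified by RapidFire SPE-triple quad MS as arachidonic acid/d8 ratio.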

O=C(N1CC2(CC(c3cc(C4CC4)n[nH]3)C2)C1)N1CC2(CN(Cc3nc(C(F)(F)F)co3)C2)C1 [Example 215, [6-(3-cyclopropyl-1H-pyrazol-5-yl)-2-azaspiro[3.3]heptan-2-yl]-[6-[[4-(trifluoromethyl)oxazol-2-yl]methyl]-2,6-diazaspiro[3.3]heptan-2-yl]methanone] and O=C(N1CC2(CC(c3cc(C4CC4)n[nH]3)C2)C1)N1CC2(CN(Cc3ccnn3C(F)(F)F)C2)C1 [Example 224, [6-(3-cyclopropyl-1H-pyrazol-5-yl)-2-azaspiro[3.3]heptan-2-yl]-[6-[[2-(trifluoromethyl)pyrazol-3-yl]methyl]-2,6-diazaspiro[3.3]heptan-2-yl]methanone] are within 1.5-fold of each other in IC50: 20 nM for the first, 20.2 nM for the second.

Compared with O=C(N1CC2(CC(n3cnc(C(F)(F)F)n3)C2)C1)N1CC2(CN(Cc3nc(C(F)(F)F)co3)C2)C1 [Example 216], O=C(N1CC2(CC(n3cnc(C(F)(F)F)n3)C2)C1)N1CC2(CN(Cc3conc3C(F)(F)F)C2)C1 [Example 218, [6-[[3-(trifluoromethyl)isoxazol-4-yl]methyl]-2,6-diazaspiro[3.3]heptan-2-yl]-[6-[3-(trifluoromethyl)-1,2,4-triazol-1-yl]-2-azaspiro[3.3]heptan-2-yl]methanone] is 3.2-fold lower in IC50: 102 nM for the first, 31.9 nM for the second. The second is the more potent here.

Going from O=C(N1CC2(CC(n3cnc(C4CC4)n3)C2)C1)N1CC2(CN(Cc3nc(C(F)(F)F)co3)C2)C1 [Example 217, [6-(3-cyclopropyl-1,2,4-triazol-1-yl)-2-azaspiro[3.3]heptan-2-yl]-[6-[[4-(trifluoromethyl)oxazol-2-yl]methyl]-2,6-diazaspiro[3.3]heptan-2-yl]methanone] to O=C(N1CC2(CC(n3cnc(C4CC4)n3)C2)C1)N1CC2(CN(Cc3conc3C(F)(F)F)C2)C1 [Example 219, [6-(3-cyclopropyl-1,2,4-triazol-1-yl)-2-azaspiro[3.3]heptan-2-yl]-[6-[[3-(trifluoromethyl)isoxazol-4-yl]methyl]-2,6-diazaspiro[3.3]heptan-2-yl]methanone], the IC50 falls from 13.7 nM to 8.82 nM (1.6-fold).

O=C(N1CC2(CC(n3cnc(C(F)(F)F)n3)C2)C1)N1CC2(CN(Cc3ncoc3C(F)(F)F)C2)C1 [Example 220] and O=C(N1CC2(CC(n3cnc(C(F)(F)F)n3)C2)C1)N1CC2(CN(Cc3nc[nH]c3C(F)(F)F)C2)C1 [Example 237, [6-[[5-(trifluoromethyl)-1H-imidazol-4-yl]methyl]-2,6-diazaspiro[3.3]heptan-2-yl]-[6-[3-(trifluoromethyl)-1,2,4-triazol-1-yl]-2-azaspiro[3.3]heptan-2-yl]methanone] are within 1.5-fold of each other in IC50: 178 nM for the first, 158 nM for the second.

O=C(N1CC2(CC(n3cnc(C4CC4)n3)C2)C1)N1CC2(CN(Cc3ncoc3C(F)(F)F)C2)C1 [Example 221, [6-(3-cyclopropyl-1,2,4-triazol-1-yl)-2-azaspiro[3.3]heptan-2-yl]-[6-[[5-(trifluoromethyl)oxazol-4-yl]methyl]-2,6-diazaspiro[3.3]heptan-2-yl]methanone] and O=C(N1CC2(CC(n3cnc(C4CC4)n3)C2)C1)N1CC2(CN(Cc3nc[nH]c3C(F)(F)F)C2)C1 [Example 238, [6-(3-cyclopropyl-1,2,4-triazol-1-yl)-2-azaspiro[3.3]heptan-2-yl]-[6-[[5-(trifluoromethyl)-1H-imidazol-4-yl]methyl]-2,6-diazaspiro[3.3]heptan-2-yl]methanone] are within 1.5-fold of each other in IC50: 32.6 nM for the first, 42.8 nM for the second.

O=C(N1CC2(CC(n3cnc(C(F)(F)F)n3)C2)C1)N1CC2(CN(Cc3ccnn3CC(F)(F)F)C2)C1 [Example 222] and O=C(N1CC2(CC(n3cnc(C(F)(F)F)n3)C2)C1)N1CC2(CN(Cc3ccnn3C(F)(F)F)C2)C1 [Example 225, [6-[[2-(trifluoromethyl)pyrazol-3-yl]methyl]-2,6-diazaspiro[3.3]heptan-2-yl]-[6-[3-(trifluoromethyl)-1,2,4-triazol-1-yl]-2-azaspiro[3.3]heptan-2-yl]methanone] are within 1.5-fold of each other in IC50: 205 nM for the first, 146 nM for the second.

First: O=C(N1CC2(CC(n3cnc(C4CC4)n3)C2)C1)N1CC2(CN(Cc3ccnn3CC(F)(F)F)C2)C1 [Example 223, [6-(3-cyclopropyl-1,2,4-triazol-1-yl)-2-azaspiro[3.3]heptan-2-yl]-[6-[[2-(2,2,2-trifluoroethyl)pyrazol-3-yl]methyl]-2,6-diazaspiro[3.3]heptan-2-yl]methanone]
Second: O=C(N1CC2(CC(n3cnc(C4CC4)n3)C2)C1)N1CC2(CN(Cc3ccnn3C(F)(F)F)C2)C1 [Example 226, [6-(3-cyclopropyl-1,2,4-triazol-1-yl)-2-azaspiro[3.3]heptan-2-yl]-[6-[[2-(trifluoromethyl)pyrazol-3-yl]methyl]-2,6-diazaspiro[3.3]heptan-2-yl]methanone]
The IC50 of the first is 2-fold higher: 69.2 nM for the first, 34.6 nM for the second. The second is the more potent here.

Compared with Cn1ncc(P(C)(C)=O)c1CN1CC2(C1)CN(C(=O)N1CC3(CC(n4cnc(C(F)(F)F)n4)C3)C1)C2 [Example 227, [6-[(4-dimethylphosphoryl-2-methyl-pyrazol-3-yl)methyl]-2,6-diazaspiro[3.3]heptan-2-yl]-[6-[3-(trifluoromethyl)-1,2,4-triazol-1-yl]-2-azaspiro[3.3]heptan-2-yl]methanone], Cn1ncc(P(C)(C)=O)c1CN1CC2(C1)CN(C(=O)N1CC3(CC(n4cnc(C5CC5)n4)C3)C1)C2 [Example 228, [6-(3-cyclopropyl-1,2,4-triazol-1-yl)-2-azaspiro[3.3]heptan-2-yl]-[6-[(4-dimethylphosphoryl-2-methyl-pyrazol-3-yl)methyl]-2,6-diazaspiro[3.3]heptan-2-yl]methanone] is 6.6-fold lower in IC50: 1380 nM for the first, 210 nM for the second. The second is the more potent here.

Compared with O=C(N1CC2(CC(n3cnc(C(F)(F)F)n3)C2)C1)N1CC2(CN(Cc3nc(C(F)(F)F)n[nH]3)C2)C1 [Example 229, [6-[3-(trifluoromethyl)-1,2,4-triazol-1-yl]-2-azaspiro[3.3]heptan-2-yl]-[6-[[3-(trifluoromethyl)-1H-1,2,4-triazol-5-yl]methyl]-2,6-diazaspiro[3.3]heptan-2-yl]methanone], O=C(N1CC2(CC(n3cnc(C(F)(F)F)n3)C2)C1)N1CC2(CN(Cc3ncc(C(F)(F)F)[nH]3)C2)C1 [Example 231, [6-[[5-(trifluoromethyl)-1H-imidazol-2-yl]methyl]-2,6-diazaspiro[3.3]heptan-2-yl]-[6-[3-(trifluoromethyl)-1,2,4-triazol-1-yl]-2-azaspiro[3.3]heptan-2-yl]methanone] is 4.6-fold lower in IC50: 1200 nM for the first, 260 nM for the second.

Compared with O=C(N1CC2(CC(n3cnc(C4CC4)n3)C2)C1)N1CC2(CN(Cc3nc(C(F)(F)F)n[nH]3)C2)C1 [Example 230, [6-(3-cyclopropyl-1,2,4-triazol-1-yl)-2-azaspiro[3.3]heptan-2-yl]-[6-[[3-(trifluoromethyl)-1H-1,2,4-triazol-5-yl]methyl]-2,6-diazaspiro[3.3]heptan-2-yl]methanone], O=C(N1CC2(CC(n3cnc(C4CC4)n3)C2)C1)N1CC2(CN(Cc3ncc(C(F)(F)F)[nH]3)C2)C1 [Example 232, [6-(3-cyclopropyl-1,2,4-triazol-1-yl)-2-azaspiro[3.3]heptan-2-yl]-[6-[[5-(trifluoromethyl)-1H-imidazol-2-yl]methyl]-2,6-diazaspiro[3.3]heptan-2-yl]methanone] is 8.4-fold lower in IC50: 672 nM for the first, 79.8 nM for the second.

Compared with O=C(N1CC2(CC(n3cnc(C(F)(F)F)n3)C2)C1)N1CC2(CN(Cc3nccn3CC(F)(F)F)C2)C1 [Example 233, [6-[[1-(2,2,2-trifluoroethyl)imidazol-2-yl]methyl]-2,6-diazaspiro[3.3]heptan-2-yl]-[6-[3-(trifluoromethyl)-1,2,4-triazol-1-yl]-2-azaspiro[3.3]heptan-2-yl]methanone], O=C(N1CC2(CC(n3cnc(C(F)(F)F)n3)C2)C1)N1CC2(CN(Cc3nccn3C(F)(F)F)C2)C1 [Example 235, [6-[[1-(trifluoromethyl)imidazol-2-yl]methyl]-2,6-diazaspiro[3.3]heptan-2-yl]-[6-[3-(trifluoromethyl)-1,2,4-triazol-1-yl]-2-azaspiro[3.3]heptan-2-yl]methanone] is 2.6-fold lower in IC50: 176 nM for the first, 68.7 nM for the second.

Going from O=C(N1CC2(CC(n3cnc(C4CC4)n3)C2)C1)N1CC2(CN(Cc3nccn3CC(F)(F)F)C2)C1 [Example 234, [6-(3-cyclopropyl-1,2,4-triazol-1-yl)-2-azaspiro[3.3]heptan-2-yl]-[6-[[1-(2,2,2-trifluoroethyl)imidazol-2-yl]methyl]-2,6-diazaspiro[3.3]heptan-2-yl]methanone] to O=C(N1CC2(CC(n3cnc(C4CC4)n3)C2)C1)N1CC2(CN(Cc3nccn3C(F)(F)F)C2)C1 [Example 236, [6-(3-cyclopropyl-1,2,4-triazol-1-yl)-2-azaspiro[3.3]heptan-2-yl]-[6-[[1-(trifluoromethyl)imidazol-2-yl]methyl]-2,6-diazaspiro[3.3]heptan-2-yl]methanone], the IC50 falls from 41.3 nM to 18.1 nM (2.3-fold). The second is the more potent here.

Going from O=C(N1CC2(CC(n3cnc(C(F)(F)F)n3)C2)C1)N1CC2(CN(Cc3nc(C4CC4)cs3)C2)C1 [Example 239, [6-[(4-cyclopropylthiazol-2-yl)methyl]-2,6-diazaspiro[3.3]heptan-2-yl]-[6-[3-(trifluoromethyl)-1,2,4-triazol-1-yl]-2-azaspiro[3.3]heptan-2-yl]methanone] to O=C(N1CC2(CC(n3cnc(C4(O)CC4)n3)C2)C1)N1CC2(CN(Cc3nc(C4CC4)cs3)C2)C1 [Example 240, [6-[(4-cyclopropylthiazol-2-yl)methyl]-2,6-diazaspiro[3.3]heptan-2-yl]-[6-[3-(1-hydroxycyclopropyl)-1,2,4-triazol-1-yl]-2-azaspiro[3.3]heptan-2-yl]methanone], the IC50 rises from 18.5 nM to 232 nM (13-fold). The first is the more potent here.
